From article PMC10167036, “The discovery and characterization of AeHGO in the branching route from shikonin biosynthesis to shikonofuran in Arnebia euchroma” (Frontiers in Plant Science, 2023)

Tested on: T1, AeHGO
T1 construct: full-length, N-terminal His-tag (pCold II), E. coli Transetta, IMAC purified, tag cut not mentioned; cloning primers encode N-terminus MGNSAE and C-terminus NTLKTA
Experiment: UPLC product assay, Michaelis-Menten fit
Type: biochemical, Arnebia euchroma
Conditions: basic assay 50 mM MES-Tris pH 7.5, 37°C
From the text: UPLC product assay, Michaelis-Menten fit on AeHGO

[1] = oxidation, 500 µM NADP+, apparent

| Km [1] | SMILES | also measured |
| --- | --- | --- |
|  | NC(=O)c1ccc[n+]([C@@H]2O[C@H](COP(=O)(O)OP(=O)(O)OC[C@H]3O[C@@H](n4cnc5c(N)ncnc54)[C@H](OP(=O)(O)O)[C@@H]3O)[C@@H](O)[C@H]2O)c1 [NADP^+] | Km (oxidation, 500 µM (Z)-3''-OH-GHQ): 17.8 ± 5.62 µM |
| 24.7 ± 5.18 µM | CC(C)=CCC/C(=C/Cc1cc(O)ccc1O)CO [compound 1, (Z)-3’’-OH-GHQ] |  |
| 18.7 ± 5.39 µM | CC(C)=CCC/C(=C\Cc1cc(O)ccc1O)CO [compound 2, (E)-3’’-OH-GHQ] |  |
|  | CC(C)=CCC/C(C=O)=C\Cc1cc(O)ccc1O [compound 3, (E)-3’’-oxo-GHQ] | Km (reduction, 500 µM NADPH, apparent, fit at low substrate concentrations because of substrate inhibition): 9.96 ± 2.87 µM |
